Reference: ChEMBL document CHEMBL3739260, “Substituted 4-hydroxy-1,2,3-triazoles: synthesis, characterization and first drug design applications through bioisosteric modulation and scaffold hopping approaches” (Medchemcomm, 2015)

How the values were obtained:
[1] = Dissociation constant, pKa of the compound; type: physicochemical
[2] = Displacement of [3H]AMPA from AMPA receptor in rat cortical synaptosomes; type: subcellular
[3] = Displacement of [3H]KA from Kainate receptor in rat cortical synaptosomes; type: subcellular
Glutamate NMDA receptor = assay: Displacement of [3H]CGP39653 from NMDA receptor in rat cortical synaptosomes; type: subcellular
Chitinase = target: T1, Chitinase (Onchocerca volvulus, UniProt Q25615); assay: Inhibition of Onchocerca volvulus chitinase by fluorescence based assay
T1 sequence (Q25615 whole entry): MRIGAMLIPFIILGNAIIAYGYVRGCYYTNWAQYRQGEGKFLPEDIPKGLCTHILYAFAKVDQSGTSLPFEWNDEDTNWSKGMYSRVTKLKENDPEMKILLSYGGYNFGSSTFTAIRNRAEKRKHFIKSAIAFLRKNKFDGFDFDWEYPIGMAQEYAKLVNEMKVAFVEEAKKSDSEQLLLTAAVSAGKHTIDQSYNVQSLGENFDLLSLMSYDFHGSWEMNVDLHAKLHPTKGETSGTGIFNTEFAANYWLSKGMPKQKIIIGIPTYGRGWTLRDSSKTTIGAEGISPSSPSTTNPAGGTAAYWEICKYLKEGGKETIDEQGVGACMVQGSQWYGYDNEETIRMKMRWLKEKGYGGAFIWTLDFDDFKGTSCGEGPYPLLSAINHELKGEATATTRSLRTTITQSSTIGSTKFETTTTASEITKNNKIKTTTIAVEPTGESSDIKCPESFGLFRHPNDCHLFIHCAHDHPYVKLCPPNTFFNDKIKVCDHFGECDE

CCOC(=O)c1cn(C)nc1O showed a pKa [1] of 6.71.
With CCOC(=O)c1nsnc1O the pKa [1] was 4.21.
For N[C@@H](Cc1nsnc1O)C(=O)O, the IC50 [2] was 0.065 µM, the IC50 [3] was > 100 µM and the Ki (Glutamate NMDA receptor) was > 100 µM.
Compound CCOC(=O)c1nn(C)nc1O has a pKa [1] of 5.14.
CCOC(=O)c1nonc1O showed a pKa [1] of 3.24.
Compound N[C@@H](CCC(=O)O)C(=O)O [GLUTAMIC ACID] has a pKa [1] of 4.2.
In the case of Cn1nnc(O)c1CC(N)C(=O)O (racemic), the pKa [1] is reported as 6.42, the IC50 [2] is reported as 1.4 µM and the IC50 [3] is reported as > 100 µM. For the same compound, the Ki (Glutamate NMDA receptor) was > 100 µM.
Work on CCOC(=O)c1nn(Cc2ccccc2)nc1O yielded a pKa [1] of 5.14.
With O=C(Nc1ccc(Oc2ccccc2)cc1)c1c(OCc2ccccc2)nnn1CC1CCCCC1 the IC50 (Chitinase) was 0.52 µM.
For O=C(Nc1ccc(Oc2ccccc2)cc1)c1nn(Cc2ccccc2)nc1OCc1ccccc1, the IC50 (Chitinase) was 0.41 µM.
In the case of O=C(Nc1ccc(Oc2ccccc2)cc1)c1c(OCc2ccccc2)nnn1Cc1ccccc1, the IC50 (Chitinase) is reported as 0.41 µM.
For CCOC(=O)c1nnn(C)c1O, the pKa [1] was 6.21.
CCOC(=O)c1nnn(Cc2ccccc2)c1O showed a pKa [1] of 6.22.
Compound O=C(Nc1ccc(Oc2ccccc2)cc1)c1c(O)nnn1CC1CCCCC1 has an IC50 (Chitinase) of 5.11 µM.
Compound CCOC(=O)c1c(O)nnn1C has a pKa [1] of 5.54.
With CCOC(=O)c1c(O)nnn1Cc1ccccc1 the pKa [1] was 5.38.
Compound Cn1nnc(O)c1C(=O)Nc1ccc(Oc2ccccc2)cc1 has an IC50 (Chitinase) of 4.69 µM.
With Cn1nc(O)c(CC(N)C(=O)O)n1 (racemic) the IC50 [3] was > 100 µM and the Ki (Glutamate NMDA receptor) was > 100 µM.
